Assay results from US9096853B2, “Modified siRNA molecules incorporating 5-fluoro-2′-deoxyuridine residues to enhance cytotoxicity” (U.S. Department of Veterans Affairs, priority 2012, dated 2015).
One block for each molecule: values may come before it. Strand notation (5' to 3'): a small letter for the sugar, then the base; units joined by * are phosphorothioate-linked, units joined directly phosphodiester-linked; [ ] holds rarer units or linkages, { } end groups; capitals alone tell only the bases. [5FU] = 5-fluoro-2'-deoxyuridine (FdU); d = 2'-deoxy (DNA); r = 2'-OH (RNA)

How the values were obtained:
[1] = system: thymidylate synthase (TS) protein; assay: Immunoblot analysis of TS protein (free and ITC-bound), Odyssey quantitation; assay type: cell-based, human; details: RKO cells, ssiRNA 1 nM, 48 hr; for Free TS (%) / ITC-Bound TS (%): normalized to free TS protein in mock-transfected cells (LF2000) set to 100%, mean ± S.D., 6 experiments
Procedure: FIGS. 1A-B illustrate the effect of FdU incorporation in ssiRNA on TS protein expression. RKO cells were transfected with TS6 ssiRNAs (1 nM) containing various 3′-overhangs. After 6 hr, the medium was replaced. After an additional 48 hr, cells were harvested and processed for immunoblot and qPCR analysis as described in the Materials and Methods section. (A) Representative blot from 4 experiments. (B) All qPCR values represent the mean±S.D. from at least 3 separate experiments performed in triplicate. The normalized amount of TS mRNA from mock-transfected cells (LF2000) was set to 1.0 and all other values compared against that value. ITC, inhibitory ternary complex;
Cells were plated at a density of 1.5×10^5 cells/well. On the following day, ssiRNAs were complexed with Lipofectamine 2000 (LF2000, Invitrogen) in serum-free RPMI-1640 medium and added to the plated cells. After 48 hr, cells were rinsed with PBS and scraped in cell lysis buffer (10 mM Tris pH7.4, 150 mM NaCl, 1 mM EDTA, 1% IGEPAL, 0.5% sodium deoxycholate, and 0.1% SDS) containing freshly added Protease Inhibitor Cocktail (Sigma; St. Louis, Mo.), 1 mM phenylmethylsulfonyl fluoride, and phosphatase inhibitors (Sigma). Lysates were sonicated and then centrifuged at 14,000 rpm for 30 min at 4° C. to remove debris. Cell lysates were stored at −80° C. for future use. For mRNA analysis, total RNA was extracted using Trizol (Invitrogen) and stored at −80° C. for future use.
Protein concentrations of cell lysates were determined using the DC Protein Assay (Bio-Rad; Hercules, Calif.). Equal amounts of protein (30 μg) from each cell lysate were resolved on SDS-PAGE using the method of Laemmli (Reference 19) and transferred onto 0.45 μm nitrocellulose membranes (Bio-Rad). Membranes were blocked and incubated overnight with primary antibodies at 4° C. The following antibodies were used in the experiments: anti-TS (Clone 4H4B1; Invitrogen), anti-TS (#5449; Cell Signaling; San Francisco, Calif.), anti-p21 Waf1/Cip1 (#2947; Cell Signaling), anti-p53 (#sc-126; Santa Cruz Biotechnology; Santa Cruz, Calif.), anti-PARP (#9542; Cell Signaling), anti-Fas (#4233; Cell Signaling), anti-phospho-histone H2A.X (Ser139) (#2577; Cell Signaling), anti-histone H2A.X (#7631; Cell Signaling), anti-phospho-ATM (pS1981; EPITOMICS Inc.; Burlingame, Calif.), anti-ATM (#A1106; Sigma), and anti-α-tubulin (EMD Biosciences; San Diego, Calif.). After multiple TBST washes (1×TBS, 0.1% Tween-20), membranes were incubated with corresponding horseradish peroxidase-conjugated secondary antibodies (Bio-Rad) for 1 hr at room temperature. Proteins were detected by the enhanced chemiluminescence method (SuperSignal West Pico substrate; Pierce; Rockford, Ill.). Quantitation of signal intensities was performed by densitometry on a Xerox scanner using NIH IMAGEJ software.
Immunoblots were prepared as described above. After incubation with anti-TS polyclonal antibody, membranes were blocked with the Odyssey blocking buffer and incubated with IRDye 800CW goat anti-rabbit antibody (LI-COR Biosciences; Lincoln, Nebr., USA) according to the manufacturer instructions. The fluorescent signal was detected and quantified using the Odyssey infrared imaging system (LI-COR).

[2] = system: human colon cancer RKO cell line; assay: Cell proliferation assay (WST-1) in RKO cells; assay type: cell-based; details: for effect on cell proliferation / cytotoxicity (in words): WST-1; for IC50: 6 hr exposure then 96 hr growth, mean ± S.D., at least 3 experiments
Procedure: RKO cells were plated in 96-well plates at a density of 800 cells/well. On the following day, cells were incubated with ssiRNA/LF2000 complexes for 6 hr, after which time, the growth medium was replaced, and cells were grown for an additional 96 hr. Similarly, RKO cells were treated with FdU (#F0503, Sigma) for 6 hr followed by medium replacement and then allowed to grow for an additional 96 hr. Cell proliferation/viability was quantified by the WST-1 assay (Roche; Indianapolis, Ind.).

[3] = system: human colon cancer RKO cell line; assay: Clonogenic assay in RKO cells; assay type: cell-based; details: for IC50: 6 hr exposure, colonies counted after 8 days, mean ± S.D., at least 3 experiments
Procedure: RKO cells were plated in 6-well plates at a density of 600 cells/well. On the following day, cells were transfected with ssiRNA/LF2000 complexes for 6 hr after which time, the growth medium was replaced. Similarly, FdU was added to wells for 6 hr followed by medium replacement. After 8 days, cell colonies were fixed with Trypan blue solution (75% methanol/25% acetic acid/0.25% trypan blue), washed, and air-dried before counting colonies >50 cells.

[4] = system: TS6 siRNA target sequence (TS mRNA nt 1058-1077) targeted by the antisense strand; assay: Luciferase assay, vector with TS6 target site for the antisense strand; assay type: cell-based, human; details: RKO cells, ssiRNA 0.1 nM, 24 hr
Procedure: (§1) FIG. 3 illustrates the effect of 3′-end modification on ssiRNA strand selection. RKO cells were transfected with luciferase vectors (including the TS6 target site for either the antisense (open bars) or sense strand (hatched bars)) in combination with ssiRNAs containing different 3′-end overhangs. After 24 hr, cells were harvested and luciferase activity was determined as described in the Materials and Methods section. Firefly/renilla luciferase activity from vector-alone transfection was normalized to 100%. All values represent the mean±S.D. from at least 4 separate experiments performed in duplicate;
(§2) FIGS. 4A-C illustrate the effect of 3′-end dU incorporation on ssiRNA strand selection. RKO cells were transfected with various TS6 ssiRNAs (1 nM) for 6 hr. After an additional 48 hr, cells were harvested for immunoblot (A) and qPCR (B) analysis. (C) Luciferase vectors (containing the siRNA target site for either the sense or antisense strand) were transfected into RKO cells in combination with different ssiRNAs. After 24 hr, cells were harvested and luciferase activity was determined as described in the Materials and Methods section. Luciferase activity from vector-alone transfection was normalized to 100%. All values represent the mean±S.D. from at least 4 separate experiments performed in duplicate;
(§3) A DNA oligonucleotide corresponding to the TS6 siRNA target sequence (TS mRNA nt 1058-1077: 5′-[…]-3′- SEQ ID NO: 23) was annealed to its complimentary antisense sequence and ligated into the pGL3-Promoter plasmid (Promega; Madison, WI) at restriction sites Hind III and Nco I. The luciferase mRNA expressed from this plasmid was targeted by the antisense strand of TS6 siRNA. A second plasmid was constructed with the TS mRNA sequence inserted in the opposite orientation so that it could be targeted by the sense or passenger strand of TS6 siRNA. […] After 24 hr, cells were washed with PBS, lysed in 1×PLG buffer, and firefly and renilla luciferase levels were determined by the Dual-Luciferase™ Reporter Assay system (Promega). […]

[5] = system: TS mRNA sequence in opposite orientation targeted by the sense (passenger) strand; assay: Luciferase assay, vector with TS6 target site for the sense strand; assay type: cell-based, human; details: RKO cells, ssiRNA 0.1 nM, 24 hr
Procedure: as §1, §2, §3

[6] = system: thymidylate synthase (TS) protein; assay: Immunoblot analysis of TS protein (free and ITC-bound), Odyssey quantitation; assay type: cell-based, human; details: RKO cells, 5 nM for 6 hr

Molecule: Mis-dU/dA: unmodified mismatched control ssiRNA; SEQ ID NO: 19 and 20 (chain 1 GGAUACUGCCAAUCUCUAGGUUUUU; chain 2 CCUAGAGAUUGGCAGUAUCCAAAAA; chain 1: sugars from the 5' end r20 d5, backbone and T or U not given here; chain 2: sugars from the 5' end r20 d5, backbone not given here) [reference compound]
Free TS (%) [1]: 90.1 ± 14.0%
effect on cell proliferation / cytotoxicity (in words) [2]: no effect
effect on clonogenic growth (in words) [3]: no effect

Molecule: TS6-1xF-dU/dA: ssiRNA with a single FdU residue at the 4th position in the sense strand; SEQ ID NO: 5 and 6 (chain 1 GGAUAUUGUCAGUCUUUAGGUUUUU; chain 2 CCUAAAGACUGACAAUAUCCAAAAA; FdU at position 4 of sense strand, chemistry not fully specified)
effect on TS protein expression (in words) [1]: significantly inhibited
Free TS (%) [1]: 27.3 ± 8.3%
ITC-Bound TS (%) [1]: 4.4 ± 2.6%
enhancement of IC50 versus TS6-dU/dA, cell growth (WST-1) assay [2]: ~30 fold
IC50 [2]: 2.85 ± 0.83 nM
fold lower IC50 (greater potency) versus TS6-dU/dA, clonogenic assay [3]: 5 fold
IC50 [3]: 0.34 ± 0.08 nM

Molecule: TS6-FdU/FdU: TS-targeted ssiRNA, both 3′-ends modified with FdU; SEQ ID NO: 13 and 14 (chain 1 rGrGrArUrArUrUrGrUrCrArGrUrCrUrUrUrArGrGd[5FU]d[5FU]d[5FU]d[5FU]d[5FU]; chain 2 rCrCrUrArArArGrArCrUrGrArCrArArUrArUrCrCd[5FU]d[5FU]d[5FU]d[5FU]d[5FU])
IC50 [2]: 0.77 ± 0.12 nM
IC50 [3]: 0.43 ± 0.16 nM
reduced efficacy as compared to TS6-FdU/dA, clonogenic assay ([3]; p=0.01): 2 fold

Molecule: TS6-2xF-dU/dA: ssiRNA with FdU on positions 16 and 18 of the antisense strand; SEQ ID NO: 17 and 18 (chain 1 GGAUAUUGUCAGUCUUUAGGUUUUU; chain 2 CCUAAAGACUGACAAUAUCCAAAAA; chain 1: sugars from the 5' end r20 d5, backbone not given here; chain 2: sugars from the 5' end rrrrrrrrrrrrrrrdrdrrddddd, [5FU] at 16, 18, backbone not given here)
Free TS (%) [1]: 54.1 ± 14.1%
ITC-Bound TS (%) [1]: 15.4 ± 9.5%

Molecule: TS6-dA/FdU: TS-targeted ssiRNA with FdU modification of the 3′-end of antisense strand; SEQ ID NO: 11 and 12 (chain 1 GGAUAUUGUCAGUCUUUAGGAAAAA; chain 2 CCUAAAGACUGACAAUAUCCUUUUU; chain 1: sugars from the 5' end r20 d5, backbone not given here; chain 2: sugars from the 5' end r20 d5, [5FU] at 21, 22, 23, 24, 25, backbone not given here)
effect on TS protein expression (in words) [1]: reduced the ability
Free TS (%) [1]: 48.0 ± 18.6%
ITC-Bound TS (%) [1]: 30.6 ± 15.6%
IC50 [2]: 1.27 ± 0.32 nM
effect on cell proliferation / cytotoxicity (in words) [2]: significantly less effective
effect on clonogenic growth (in words) [3]: significantly less effective
IC50 [3]: 0.4 ± 0.2 nM
less targeting by the antisense strand [4]: 2 fold
sense strand targeting, luciferase (in words) [5]: enhanced

IC50 ([2]; Homo sapiens): 6.93 ± 2.08 nM
IC50 ([3]; Homo sapiens): 7.42 ± 1.33 nM
Molecule: O=c1[nH]c(=O)n([C@H]2C[C@H](O)[C@@H](CO)O2)cc1F [FdU (TS inhibitor), 5-fluoro-2′-deoxyuridine]

Molecule: TS6-UU: standard TS6 siRNA with two uridine overhangs, TS-targeted; SEQ ID NO: 1 (sense) and 2 (antisense) (sense GGAUAUUGUCAGUCUUUAGGUU; antisense CCUAAAGACUGACAAUAUCCUU; RNA, backbone not given here)
antisense strand targeting, luciferase (in words) [4]: suppressed
sense strand targeting, luciferase (in words) [5]: suppressed

Molecule: O=c1[nH]cc(F)c(=O)[nH]1 [5-FU, 5-fluorouracil, reference compound]
formation of the ITC after incubation with 5-FU [6]: did not result in formation of the ITC

Molecule: TS6-3xF-dU/dA: ssiRNA with FdU replacing U at positions 10, 16 and 18 in the antisense strand; SEQ ID NO: 15 and 16 (chain 1 GGAUAUUGUCAGUCUUUAGGUUUUU; chain 2 CCUAAAGACUGACAAUAUCCAAAAA; FdU at antisense positions 10, 16, 18, chemistry not fully specified)
Free TS (%) [1]: 73.6 ± 14.7%
ITC-Bound TS (%) [1]: 26.2 ± 10.7%
